Measurements reported in US8680087B2, “Macrocyclic amides, pharmaceutical compositions, preparation methods and uses thereof” (Yuxi Winhey Bio-Tech Co., Ltd., priority 2009, dated 2014).
Values after ≈ are worked out from the molar mass of the structure shown. Read-outs that look alike come from different tables or passages of the source.

Experiments:
Assay type in all cases: cell-based
Enterococcus faecalis = assay: Antibacterial activity test, standard dilution method (MIC); conditions: 24 hr and 48 hr, trypticase soy broth, 35° C.
Experimental: (§1) The following antibacterial activity test of WH-21091 was conducted to illustrate the antibacterial activity of WH-21091. Standard dilution method was adopted, and the measurement was conducted under 35° C. After culturing for 24 hours, the minimum inhibition concentrations (MICs) of WH-21091 were obtained.

Escherichia coli = assay: as above; conditions: 24 hr and 48 hr, trypticase soy broth, 35° C.
Experimental: as §1

Pseudomonas aeruginosa = assay: as above; conditions: 24 hr and 48 hr, trypticase soy broth, 35° C.
Experimental: as §1

[1] = tested on: S. aureus MSRA (clinical isolates of methicilllin-resistant strains); assay: as above; conditions: Staphylococcus aureus
Experimental: as §1

[2] = tested on: Staphylococcus epidermidis; assay: as above; conditions: 24 hr and 48 hr, trypticase soy broth, 35° C.
Experimental: as §1

Streptococcus pyogenes = assay: as above; conditions: 24 hr and 48 hr, trypticase soy broth, 35° C.
Experimental: as §1

[3] = tested on: breast cancer MCF-7 cells; assay: In vitro antitumor activity test (method of Skehan et al.); conditions: Homo sapiens, MCF7; MCF-7 breast cancer cells
Experimental: (§2) Following the method described by Skehan et al. (1990), in vitro antitumor activity tests of WH-21091 on human lung cancer H460, breast cancer MCF-7 and cervix cancer Hela cells were conducted.

cervix cancer Hela cells = assay: as above; conditions: Homo sapiens
Experimental: as §2

[4] = tested on: human lung cancer H460 cells; assay: as above; conditions: NCI-H460
Experimental: as §2

| Structure (SMILES) | MIC (Enterococcus faecalis) | MIC (Escherichia coli) | MIC (Pseudomonas aeruginosa) | MIC [1] | MIC [2] | MIC (Streptococcus pyogenes) | MIC ([1]; S. aureus MSRA, clinical isolates of methicilllin-resistant strains, 24 hr and 48 hr, trypticase soy broth, 35° C., read-out: MIC) | IC50 [3] | IC50 (cervix cancer Hela cells) | IC50 [4] |
| --- | --- | --- | --- | --- | --- | --- | --- | --- | --- | --- |
| CC[C@H]1OC(=O)[C@H](C)[C@@H](O[C@H]2C[C@@](C)(OC)[C@@H](O)[C@H](C)O2)[C@H](C)[C@@H](O[C@@H]2O[C@H](C)C[C@H](N(C)C)[C@H]2O)[C@](C)(O)C[C@@H](C)C(=O)[C@H](C)[C@@H](O)[C@]1(C)O [erythromycin, reference compound] | > 32 µg/mL | 1 µg/mL (≈ 1.36 µM) | > 32 µg/mL | > 32 µg/mL | 0.25 µg/mL (≈ 0.341 µM) | 0.03 µg/mL (≈ 0.0409 µM) |  |  |  |  |
| CC1CC(C)CC(C(O)Cc2cccc(O)c2C(=O)O)NC(=O)C(O)C(O)C(O)C1 (stereo not drawn) [WH-21091] | 32 µg/mL (≈ 75.2 µM) | 4 µg/mL (≈ 9.4 µM) | > 32 µg/mL |  | 8 µg/mL (≈ 18.8 µM) | 4 µg/mL (≈ 9.4 µM) | 4 µg/mL (≈ 9.4 µM) | 0.81 µg/mL (≈ 1.9 µM) | 0.24 µg/mL (≈ 0.564 µM) | 0.1 µg/mL (≈ 0.235 µM) |
